Test results taken from US20220110315A1, “SOLUTIONS AND METHODS FOR ORGAN PRESERVATION” (priority 2019, published 2022).

Test system: isolated perfused rat hearts
Test: Isolated perfused rat heart (modified Langendorff) global ischemia/reperfusion injury
Conditions: 5 μM for 5 min prior to 30 min global ischemia and for first 5 min of 45 min reperfusion; compared to untreated control I/R hearts; n=7

## Oc1ccc2c3c1O[C@H]1c4[nH]c5ccccc5c4C[C@@]4(O)[C@@H](C2)N(CC2CC2)CC[C@]314 [naltrindole]
  infarct size (TTC staining at end of reperfusion): reduced infarct size
  post-reperfused cardiac function (+dP/dtmax, -dP/dtmin, LVDP, LVEDP): significantly restored
